Like-named read-outs stand apart in the source and are kept apart here.
B1: BmrA E504A mutant (Bacillus subtilis multidrug ABC transporter) (natural protein)
chain: MPTKKQKSKSKLKPFFALVRRTNPSYGKLAFALALSVVTTLVSLLIPLLTKQLVDGFSMSNLSGTQIGLIALVFFVQAGLSAYATYALNYNGQKIISGLRELLWKKLIKLPVSYFDTNASGETVSRVTNDTMVVKELITTHISGFITGIISVIGSLTILFIMNWKLTLLVLVVVPLAALILVPIGRKMFSISRETQDETARFTGLLNQILPEIRLVKASNAEDVEYGRGKMGISSLFKLGVREAKVQSLVGPLISLVLMAALVAVIGYGGMQVSSGELTAGALVAFILYLFQIIMPMGQITTFFTQLQKSIGATERMIEILAEEEEDTVTGKQIENAHLPIQLDRVSFGYKPDQLILKEVSAVIEAGKVTAIVGPSGGGKTTLFKLLERFYSPTAGTIRLGDEPVDTYSLESWREHIGYVSQESPLMSGTIRENICYGLERDVTDAEIEKAAEMAYALNFIKELPNQFDTEVGERGIMLSGGQRQRIAIARALLRNPSILMLDAATSSLDSQSEKSVQQALEVLMEGRTTIVIAHRLSTVVDADQLLFVEKGEITGRGTHHELMASHGLYRDFAEQQLKMNADLENKAG
notes: BmrA, efflux pump of Bacillus subtilis, type-IV MDR ABC transporter; each monomer has 1 TMD and 1 NBD; Homodimer; the plasmid pET15b encodes the mutant fused to a 6-histidine tag at the N-terminal; also called E504A^apo; E504A^R6G; source: E. coli C43(DE3)∆AcrB, pET15b; membranes solubilised in Triton X100, purified (two Ni-NTA steps, Superdex 200) in DDM/sodium cholate

Tests used:
[1] = molecular target: T1, BmrA (Bacillus subtilis, UniProt O06967, E504A); assay: biochemical
[2] = molecular target: T1, BmrA; assay: biochemical; remark: listed apart in the source
[3] = molecular target: the molecule itself; assay: cryo-EM structure; purified BmrA E504A at 25 µM in 20 mM HEPES-NaOH pH 7.5, 100 mM NaCl, DDM/sodium cholate; 0, 25, 70, 100 µM or 5 mM ATP-Mg2+, with or without 100 µM R6G, or with Hœchst33342; inward-facing and outward-facing dimers reconstructed

Molecule | Kd [2] | other results
Nc1ncnc2c1ncn2[C@@H]1O[C@H](COP(=O)(O)OP(=O)(O)OP(=O)(O)O)[C@@H](O)[C@H]1O [ATP] |  | Kd [1]: 154 ± 49 µM
COc1cccc2c1C(=O)c1c(O)c3c(c(O)c1C2=O)C[C@@](O)(C(=O)CO)C[C@@H]3O[C@H]1C[C@H](N)[C@H](O)[C@H](C)O1 [Doxorubicin] | 7.3 ± 2.2 µM | 
CCOc1ccc(-c2nc3cc(-c4nc5cc(N6CCN(C)CC6)ccc5[nH]4)ccc3[nH]2)cc1 [Hœchst33342] | 9.6 ± 1.3 µM | 
B1 |  | binding result [3]: binds
